Some results are limits rather than exact numbers.

The values below come from patent US10265310B2, “6-membered cyclic amines or lactames substituted with urea and phenyl” (GRÜNENTHAL GMBH, priority 2016, dated 2019).

One experiment concerns the target FPR1 (Homo sapiens (Human), UniProt P21462). Put plainly: Agonistic activity (calcium FLIPR) in hFPR1-Gα15-CHO cells. In kind it is cell-based. The settings on record: FLIPR Calcium 5 dye fluorescence, agonistic response. The procedure: (§1) Cells (hFPR1-Gα15-CHO or hFPR2-Aq-CHO) are suspended in 10 mL of respective complete medium (F12(1×) HAM media; 10% HI-FBS; 0.1 mg/ml Hygromycin B and 0.2 mg/ml Zeocin [for hFPR1 only]; 0.4 mg/mL Geneticin and 0.25 mg/ml Zeocin [for hFPR2-Aq only]) and viability is checked using Trypan Blue exclusion. After washing, the cells are plated at 10,000 cells per well in 40 μL complete medium in a 384-well sterile clear bottom black plate and incubated in a 5% CO2 incubator at 37° C. for 18 hours. Plating media is removed from each well by decanting and gentle tapping before 30 μL of 0.5× Calcium 5 dye solution (0.5×FLIPR Calcium 5 dye (Molecular devices, R8186)); HBSS; 20 mM HEPES; 2.5 mM Probenecid; 0.025% Pluronic F-127; pH adjusted to 7.4) is added to each well and the plate is then incubated at 37° C. for 30 minutes. For the assay the plate is equilibrated at room temperature for 10 minutes before placing it in the FLIPR. Compounds are dissolved in DMSO and serially diluted over an 11 point half log (3.16 fold) dilution (2 mM to 20 nM). Compounds are then diluted 1:50 in assay buffer (HBSS; 20 mM HEPES; 2.5 mM Probenecid; 0.05% gelatin; 0.1% BSA; pH adjusted to 7.4) just before performing the assay. Compounds are finally added to the respective wells of the cell plate (final assay concentration 10 μM to 100 pM) using the FLIPR (e.g. FLIPR-Tetra, Molecular Devices) and fluorescence readings are captured for 5 minutes. The increase in fluorescence from the basal reading in the presence of the compounds is compared with that of the control wells (wells having no compound) to calculate the activity of the compounds. The EC50 values of the compounds can be determined using e.g. Graph pad Prism software.
(§2) Assay Method for Measuring Agonistic Activity of Compounds in hFPR1-Gα15-CHO and hFPR2-Aq-CHO Cell
(§3) Cryo-vial containing 6×10^6 cells (hFPR1-Gα15-CHO or hFPR2-Aq-CHO) was thawed in a 37° C. water bath. Cells were suspended in 10 ml of respective complete growth media (F12(1×) HAM media (Gibco; Cat#11765); 10% HI-FBS (Gibco; Cat#10082); 0.1 mg/ml Hygromycin B (Invitrogen; Cat#10687-010) [for hFPR1 only]; 0.2 mg/ml Zeocin (Invitrogen; Cat#R25001) [for hFPR1 only]; 0.4 mg/ml Geneticin (Gibco; Cat#10131) [for hFPR2-Aq only]; 0.25 mg/ml Zeocin (Invitrogen; Cat#R25001) [for hFPR2-Aq only]) in a 15 ml centrifuge tube. The cell viability was checked with the help of Trypan Blue dye. Upon washing the cells, those were plated in a 384-well sterile clear bottom black plate (Greiner Bioone Cat#781091) so that, each well contained 10,000 cells in 40 μl complete growth media. The plate was incubated in a 5% CO2 incubator at 37° C. for 18 hours.
(§4) Before assay on the next day, the cell plating media was removed from each well of the plate by decanting and gentle tapping. 30 μl, 0.11 of 0.5× Calcium 5 dye solution (0.5×FLIPR Calcium 5 dye (Molecular devices Cat# R8186); HBSS (Invitrogen; Cat#14025); 20 mM HEPES (Sigma; Cat#H0887); 2.5 mM Probenecid (Sigma; Cat#P8761); 0.025% Pluronic F-127 (Sigma; Cat#P2443); pH adjusted to 7.4) was added to each well. The plate was then incubated at 37° C. for 30 minutes. Following which the plate was equilibrated at room temperature for 10 minutes before placing it in a 384 well FLIPR for assay. Compounds were dissolved in DMSO and serially diluted following 11 point half log (3.16 fold) dilution with a starting concentration of 2 mM (Final assay concentration 10 μM). Aliquots of above mentioned each dilution was mixed with assay buffer (HBSS (Invitrogen; Cat#14025); 20 mM HEPES (Sigma; Cat#H0887); 2.5 mM Probenecid (Sigma; Cat#P8761); 0.05% gelatin (Sigma; Cat#G1890); 0.1% BSA (Sigma; Cat#A3059); pH adjusted to 7.4) just before performing the assay. Compounds were added to the respective wells of the assay ready cell plate with the help of the FLIPR (FLIPR Tetra) and fluorescence readings were captured for 5 minutes to measure any agonistic response of the compounds. […]

The target of a further experiment is FPR2 (Homo sapiens (Human), UniProt P25090). The experiment in a line: Agonistic activity (calcium FLIPR) in hFPR2-Aq-CHO cells. The experiment is classed as cell-based. As to conditions: FLIPR Calcium 5 dye fluorescence, agonistic response. The procedure: as §1, §2, §3, §4
Chain of FPR2 (P25090 whole entry): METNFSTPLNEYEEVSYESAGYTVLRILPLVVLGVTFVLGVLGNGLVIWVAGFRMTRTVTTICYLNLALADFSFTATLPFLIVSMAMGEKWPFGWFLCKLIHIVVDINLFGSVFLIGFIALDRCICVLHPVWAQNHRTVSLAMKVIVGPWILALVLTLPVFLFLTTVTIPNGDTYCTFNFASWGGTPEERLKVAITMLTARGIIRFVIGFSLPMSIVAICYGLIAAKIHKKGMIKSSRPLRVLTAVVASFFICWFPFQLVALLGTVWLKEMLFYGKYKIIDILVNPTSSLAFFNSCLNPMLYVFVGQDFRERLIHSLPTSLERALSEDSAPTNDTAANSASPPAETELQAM

Chain of FPR1 (P21462 whole entry): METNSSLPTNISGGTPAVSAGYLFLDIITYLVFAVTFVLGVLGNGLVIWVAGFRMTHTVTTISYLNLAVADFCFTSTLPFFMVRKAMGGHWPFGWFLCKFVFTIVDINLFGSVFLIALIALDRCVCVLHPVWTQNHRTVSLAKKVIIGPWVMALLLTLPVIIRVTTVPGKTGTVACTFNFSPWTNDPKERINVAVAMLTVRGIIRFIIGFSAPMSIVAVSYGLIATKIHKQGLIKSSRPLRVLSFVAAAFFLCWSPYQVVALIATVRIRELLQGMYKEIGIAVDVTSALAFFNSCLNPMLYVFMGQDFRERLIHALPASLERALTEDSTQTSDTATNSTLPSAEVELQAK

As for `COc1cc(F)c([C@@H]2CC(=O)NC[C@H]2NC(=O)Nc2ccc(Oc3ccccc3)cc2)c(F)c1` (racemic) [Example 54, rac-trans-1-[4-(2,6-Difluoro-4-methoxy-phenyl)-6-oxo-piperidin-3-yl]-3-(4-phenoxy-phenyl)-urea], the results for the EC50 on FPR1 and on FPR2 were 1 to 1000 nM and less than 1 nM, respectively. Regarding `COc1ccc([C@@H]2CC(=O)NC[C@H]2NC(=O)Nc2ccc(Br)cc2)cc1` (racemic) [Example 3, rac-trans-1-(4-bromophenyl)-3-(4-(4-methoxyphenyl)-6-oxopiperidin-3-yl)urea], the concentration giving a half-maximal response (EC50) – broadly, the concentration needed to bring the measured effect to its halfway point – at FPR1 was 1 to 1000 nM; on FPR2, less than 1 nM.

Regarding `COc1cc(F)c([C@@H]2CC(=O)N(CC3CC3)C[C@H]2NC(=O)Nc2ccc(Cl)cc2)c(F)c1` (racemic) [Example 29, rac-trans-1-(4-chlorophenyl)-3-(1-(cyclopropylmethyl)-4-(2,6-difluoro-4-methoxyphenyl)-6-oxopiperidin-3-yl)urea], the values for the EC50 on FPR1 and at FPR2 were 1 to 1000 nM and less than 1 nM, respectively. `COc1cc(F)c([C@@H]2CC(=O)NC[C@H]2NC(=O)Nc2ncc(Cl)s2)c(F)c1` (racemic) [Example 56, rac-trans-1-(5-Chloro-thiazol-2-yl)-3-[4-(2,6-difluoro-4-methoxy-phenyl)-6-oxo-piperidin-3-yl]-urea]: the concentration for a half-maximal effect (EC50) on FPR1 and on FPR2 was 1 to 1000 nM each time.

With `CCc1ccc([C@@H]2CC(=O)NC[C@H]2NC(=O)Nc2ccc(Cl)cc2)cc1` (racemic) [Example 73, rac-trans-1-(4-chlorophenyl)-3-(4-(4-ethylphenyl)-6-oxopiperidin-3-yl)urea], the EC50 at FPR1 and at FPR2 was 1 to 1000 nM each time. For `O=C1C[C@@H](c2ccc(OC(F)F)cc2)[C@H](NC(=O)Nc2ccc(Cl)cc2)CN1` (racemic) [Example 74, rac-trans-1-(4-chlorophenyl)-3-(4-(4-(difluoromethoxy)phenyl)-6-oxopiperidin-3-yl)urea], the EC50 at FPR1 and on FPR2 was 1 to 1000 nM throughout. Consider `COc1cc(F)c(C2CCN(C(=O)C3CC3)CC2NC(=O)Nc2ccc(Cl)cc2)c(F)c1` (single isomer, unassigned; ent1) [Example 39, trans-ent1-1-(4-chlorophenyl)-3-(1-(cyclopropanecarbonyl)-4-(2,6-difluoro-4-methoxyphenyl)piperidin-3-yl)urea], for which the concentration for a half-maximal effect (EC50) on FPR1 was 1 to 1000 nM; at FPR2 it was less than 1 nM. For `COc1ccc([C@@H]2CCN(C(C)=O)C[C@H]2NC(=O)Nc2ccc(C(F)(F)F)nc2)cc1` (racemic) [Example 27, rac-trans-1-(1-acetyl-4-(4-methoxyphenyl)piperidin-3-yl)-3-(6-(trifluoromethyl)pyridin-3-yl)urea], the EC50 on FPR1 and on FPR2 was 1 to 1000 nM throughout. Turning to `COc1cc(F)c([C@@H]2CCNC[C@H]2NC(=O)Nc2ccc(Br)cc2)c(F)c1` (racemic) [Example 8, rac-trans-1-(4-bromophenyl)-3-(4-(2,6-difluoro-4-methoxyphenyl)piperidin-3-yl)urea], the EC50 on FPR1 was 1 to 1000 nM; on FPR2, less than 1 nM.

In the case of `COc1cc(F)c([C@@H]2CC(=O)NC[C@H]2NC(=O)Nc2ccc(Cl)c(O)c2)c(F)c1` (racemic) [Example 57, rac-trans-1-(4-Chloro-3-hydroxy-phenyl)-3-[4-(2,6-difluoro-4-methoxy-phenyl)-6-oxo-piperidin-3-yl]-urea], the results for the EC50 at FPR1 and at FPR2 were 1 to 1000 nM and less than 1 nM, respectively. For `COc1ccc([C@@H]2CCN(C(C)=O)C[C@H]2NC(=O)Nc2cncnc2)cc1` (racemic) [Example 25, rac-trans-1-(1-acetyl-4-(4-methoxyphenyl)piperidin-3-yl)-3-(pyrimidin-5-yl)urea], the 50% effective concentration (EC50) at FPR1 and on FPR2 was 1 to 1000 nM throughout. Consider `COc1cc(F)c(C2CCN(C(=O)C3CC3)CC2NC(=O)Nc2ccc(Cl)cc2)c(F)c1` (single isomer, unassigned; ent2) [Example 40, trans-ent2-1-(4-chlorophenyl)-3-(1-(cyclopropanecarbonyl)-4-(2,6-difluoro-4-methoxyphenyl)piperidin-3-yl)urea], for which the EC50 at FPR1 and at FPR2 was 1 to 1000 nM throughout. Take `COc1ccc(C2C(NC(=O)Nc3ccc(Cl)cc3)CCCN2C)cc1` (single isomer, unassigned; dia2) [Example 90, dia2-1-(4-chlorophenyl)-3-(2-(4-methoxyphenyl)-1-methylpiperidin-3-yl)urea]: the EC50 on FPR1 and on FPR2 was 1 to 1000 nM throughout. In the case of `COc1cc(F)c(C2CCNCC2NC(=O)Nc2ccc(Cl)cc2)c(F)c1` (single isomer, unassigned; ent1) [Example 36, trans-ent1-1-(4-chlorophenyl)-3-(4-(2,6-difluoro-4-methoxyphenyl)piperidin-3-yl)urea], the results for the EC50 on FPR1 and on FPR2 were 1 to 1000 nM and less than 1 nM, respectively. In the same order, the values of `O=C1CC(c2ccc(F)cc2F)C(NC(=O)Nc2ccc(Cl)cc2)CN1` (single isomer, unassigned; ent1) [Example 67, trans-ent1-1-(4-Chlorophenyl)-3-[4-(2,4-difluoro-phenyl)-6-oxo-piperidin-3-yl]-urea] are 1 to 1000 nM and 1 to 1000 nM. The like results for `COCCN1CC(NC(=O)Nc2ccc(Cl)cc2)C(c2ccc(OC)cc2F)CC1=O` (single isomer, unassigned; ent2) [Example 60, trans-ent2-1-(4-Chlorophenyl)-3-[4-(2-fluoro-4-methoxy-phenyl)-1-(2-methoxy-ethyl)-6-oxo-piperidin-3-yl]-urea] were, in that order, 1 to 1000 nM and 1 to 1000 nM. In the same order, the values of `COc1cc(F)c(C2C(NC(=O)Nc3ccc(Cl)cc3)CCCN2C)c(F)c1` (single isomer, unassigned; dia2) [Example 88, dia2-1-(4-chlorophenyl)-3-(2-(2,6-difluoro-4-methoxyphenyl)-1-methylpiperidin-3-yl)urea] are 1 to 1000 nM and 1 to 1000 nM. As for `COc1cc(F)c(C2CC(=O)NCC2NC(=O)Nc2ccc(Cl)cc2)c(F)c1` (single isomer, unassigned; ent2) [Example 50, trans-ent2-1-(4-chlorophenyl)-3-(4-(2,6-difluoro-4-methoxyphenyl)-6-oxopiperidin-3-yl)urea], the EC50 at FPR1 was 1 to 1000 nM; at FPR2, less than 1 nM. In the same order, the values of `O=C1CC(c2ccc(Cl)cc2)C(NC(=O)Nc2ccc(Cl)cc2)CN1` (single isomer, unassigned; ent1) [Example 91, trans-ent1-1-(4-chlorophenyl)-3-(4-(4-chlorophenyl)-6-oxopiperidin-3-yl)urea] are 1 to 1000 nM and 1 to 1000 nM. With `CSc1ccc([C@@H]2CC(=O)NC[C@H]2NC(=O)Nc2ccc(Cl)cc2)cc1` (racemic) [Example 72, rac-trans-1-(4-chlorophenyl)-3-(4-(4-(methylthio)phenyl)-6-oxopiperidin-3-yl)urea], the EC50 at FPR1 was in the range of 1 to 1000 nM.
